13 compounds from paper PMC6805867, “Amphiphilic Triazine Polymer Derivatives as Antibacterial And Anti-atopic Agents in Mice Model” (Scientific Reports, 2019) can be followed below.

Some results are limits rather than exact numbers.

Type in all cases: cell-based
In assay [1] the test system is Multidrug-resistant Pseudomonas aeruginosa (MDRPA) (CCARM 2095). Nature of the assay: Chequerboard assay (synergy with clinically used antibiotics). The note with it: for FICA (fractional inhibitory concentration of antibiotic): [A]/MICA; for MICA (MIC of antibiotic alone): MDRPA CCARM 2095, 37 °C, 22 h, unit printed only in b27, not in the table; for [A] (MIC of antibiotic in combination): MDRPA CCARM 2095, unit not given. The method, then: Briefly, 2-fold serial dilutions of each antibiotic and each polymer were prepared and added in a 1:1 volume ratio to the wells of a 96-well plate. An equal volume of bacterial solution (100 μL) at ∼10^6 CFU/mL was then seeded into each well. The plates were incubated in a shaking incubator at 37 °C and 200 rpm and read after 22 h. Bacterial growth was assessed visually or spectrophotometrically via OD600 readings taken by a microplate ELISA reader (Molecular Devices, Sunnyvale, CA, USA). The fractional inhibitory concentration index (FICI) for each drug combination was calculated using the following equation: FICI = FICA + FICB = [A]/MICA + [B]/MICB, where MICA and MICB are the MIC of antibiotic and triazine based monomer (TZP3 or TZP5), respectively, while [A] and [B] are the MIC of antibiotic and triazine based monomer (TZP3 or TZP5) in combination, respectively. FICI of ≤ 0.5 was interpreted as synergy, 0.5 < FICI ≤ 1.0 as additive, 1.0 < FICI ≤ 4.0 as indifferent, and a FICI > 4.0 as antagonism.

The subject of assay [2] is selected bacterial strains. Briefly: Geometric mean of MIC values over the bacterial strains. The note with it: geometric mean of MIC values from selected six bacterial strains (footnote b). The method, then: (§1) The bacterial strains employed in the experiment were Escherichia coli (KCTC 1682), Pseudomonas aeruginosa (KCTC 1637), Bacillus subtilis (KCTC 3068), Staphylococcus aureus (KCTC 1621), three methicillin-resistant Staphylococcus aureus (CCARM 3089, 3090 and 3095), two multidrug-resistant Pseudomonas aeruginosa (CCARM 2095 and 2109) and vancomycin-resistant Enterococcus faecium (ATCC 51559). The antimicrobial activities of polymers were determined by the broth microdilution method, and the procedures were used as previously reported. Briefly, bacteria grown to mid-logarithmic phase in LB broth were diluted to 2 × 10^6 CFU/mL in 1% peptone and added to serial two-fold dilutions of different polymers ranging from 1 to 64 μg/mL. The plates were incubated in a shaking incubator at 37 °C for 18–22 h. The minimum inhibitory concentration (MIC) was determined by confirming the absence of bacterial growth both visually and spectrophotometrically by OD600 readings taken by a microplate ELISA reader (Molecular Devices, Sunnyvale, CA, USA). All measurements were performed three times.

Assay [3] relates to Bacillus subtilis (KCTC 3068). Briefly: Antimicrobial activity, broth microdilution MIC. The note with it: 2 × 10^6 CFU/mL in 1% peptone, 37 °C, 18–22 h, 100% inhibition of growth, performed three times. The protocol: as §1
For orientation: In broth dilution the organism is exposed to a series of concentrations in liquid medium.

For assay [4], the system named is Escherichia coli (KCTC 1682). Nature of the assay: Antimicrobial activity, broth microdilution MIC. The note with it: 2 × 10^6 CFU/mL in 1% peptone, 37 °C, 18–22 h, 100% inhibition of growth, performed three times. The protocol: as §1
Assay [5] deals with Pseudomonas aeruginosa (KCTC 1637). Nature of the assay: Antimicrobial activity, broth microdilution MIC. The note with it: 2 × 10^6 CFU/mL in 1% peptone, 37 °C, 18–22 h, 100% inhibition of growth, performed three times. The protocol:
as §1

In assay [6] the test system is Staphylococcus aureus (KCTC 1621). Briefly: Antimicrobial activity, broth microdilution MIC. The note with it: 2 × 10^6 CFU/mL in 1% peptone, 37 °C, 18–22 h, 100% inhibition of growth, performed three times. The method, then:
as §1

In the case of `O=C(N[C@H](CO)[C@H](O)c1ccc([N+](=O)[O-])cc1)C(Cl)Cl` [Chloramphenicol, chloramphenicol, reference compound], the “FICA (fractional inhibitory concentration of antibiotic)” value in assay [1] (in combination with TZP3) and in assay [1] (in combination with TZP5) was 0.031 throughout. In addition, the entries for the “MICA (MIC of antibiotic alone)” value in assay [1] and in assay [1] (listed as chloramphenicol) were 512 µM and 512−1024 μM, respectively. In addition, the “[A] (MIC of antibiotic in combination)” value in assay [1] (in combination with TZP3) and in assay [1] (in combination with TZP5) was 16 each time.
For the compound `Cc1onc(-c2ccccc2)c1C(=O)N[C@@H]1C(=O)N2[C@@H]1SC(C)(C)[C@@H]2C(=O)O` [Oxacillin, oxacillin, reference compound], the “FICA (fractional inhibitory concentration of antibiotic)” value in assay [1] (in combination with TZP3) and in assay [1] (in combination with TZP5) was 1.0 throughout. Further, the “MICA (MIC of antibiotic alone)” value in assay [1] is 1024 µM; in assay [1] (listed as oxacillin) it was 512−1024 μM. Moreover, the “[A] (MIC of antibiotic in combination)” value in assay [1] (in combination with TZP3) and in assay [1] (in combination with TZP5) was 1024 throughout.
As for `NCCCN(CCCN)c1nc(N)nc(NCCNc2nc(Cl)nc(N(CCCN)CCCN)n2)n1` [TZP1], the “GM (geometric mean of MIC values)” value in assay [2] was 48.0 [91.3] μg/mL. The “MIC Bacillus subtilis (KCTC 3068)” value in assay [3] was 64 [121.7] μg/mL. Further, the “MIC Escherichia coli (KCTC 1682)” value in assay [4] is 32 [60.8] μg/mL. Moreover, in assay [5], the “MIC Pseudomonas aeruginosa (KCTC 1637)” value was 64 [121.7] μg/mL. Besides, in assay [6], the “MIC Staphylococcus aureus (KCTC 1621)” value was 32 [60.8] μg/mL.
Consider `N=C(N)NCCCN(CCCNC(=N)N)c1nc(N)nc(NCCNc2nc(Cl)nc(N(Cc3ccccc3)Cc3ccccc3)n2)n1` [TZP2], for which the “GM (geometric mean of MIC values)” value in assay [2] is 3.5 [5.2] μg/mL. Further, the “MIC Bacillus subtilis (KCTC 3068)” value in assay [3] was 2 [3] μg/mL. The “MIC Escherichia coli (KCTC 1682)” value in assay [4] was 2 [3] μg/mL. Further, the “MIC Pseudomonas aeruginosa (KCTC 1637)” value in assay [5] is 8 [11.8] μg/mL. The “MIC Staphylococcus aureus (KCTC 1621)” value in assay [6] was 2 [3] μg/mL.
For `NCCCN(CCCN)c1nc(N)nc(NCCNc2nc(NCCNc3nc(Cl)nc(N(Cc4ccccc4)Cc4ccccc4)n3)nc(N(CCCN)CCCN)n2)n1` [TZP4], the “GM (geometric mean of MIC values)” value in assay [2] is 2.5 [2.9] μg/mL. For the same compound, the “MIC Bacillus subtilis (KCTC 3068)” value in assay [3] was 2 [2.3] μg/mL. In addition, in assay [4], the “MIC Escherichia coli (KCTC 1682)” value was 2 [2.3] μg/mL. Moreover, the “MIC Pseudomonas aeruginosa (KCTC 1637)” value in assay [5] was 4 [4.7] μg/mL. Further, the “MIC Staphylococcus aureus (KCTC 1621)” value in assay [6] is 2 [2.3] μg/mL.
On to `N=C(N)NCCCN(CCCNC(=N)N)c1nc(Cl)nc(NCCNc2nc(NCCNc3nc(N)nc(N(CCCN)CCCN)n3)nc(N(Cc3ccccc3)Cc3ccccc3)n2)n1` [TZP6], for which the “GM (geometric mean of MIC values)” value in assay [2] is 2.5 [2.7] μg/mL. Further, in assay [3], the “MIC Bacillus subtilis (KCTC 3068)” value was 2 [2.1] μg/mL. The “MIC Escherichia coli (KCTC 1682)” value in assay [4] was 2 [2.1] μg/mL. The “MIC Pseudomonas aeruginosa (KCTC 1637)” value in assay [5] is 4 [4.2] μg/mL. In assay [6], the “MIC Staphylococcus aureus (KCTC 1621)” value was 2 [2.1] μg/mL.
Regarding `NCCCN(CCCN)c1nc(N)nc(NCCNc2nc(NCCNc3nc(Cl)nc(N(CCCN)CCCN)n3)nc(N(CCCN)CCCN)n2)n1` [TZP7], the “GM (geometric mean of MIC values)” value in assay [2] was 12.0 [15.2] μg/mL. For the same compound, the “MIC Bacillus subtilis (KCTC 3068)” value in assay [3] is 8 [10.1] μg/mL. The “MIC Escherichia coli (KCTC 1682)” value in assay [4] is 16 [20.2] μg/mL. Also, the “MIC Pseudomonas aeruginosa (KCTC 1637)” value in assay [5] was 8 [10.1] μg/mL. For the same compound, the “MIC Staphylococcus aureus (KCTC 1621)” value in assay [6] is 16 [20.2] μg/mL.
For the compound `NCCCN(CCCN)c1nc(NCCNc2nc(N)nc(N(Cc3ccccc3)Cc3ccccc3)n2)nc(NCCNc2nc(Cl)nc(N(Cc3ccccc3)Cc3ccccc3)n2)n1` [TZP8], the “GM (geometric mean of MIC values)” value in assay [2] is 38.0 [41.1] μg/mL. Moreover, in assay [3], the “MIC Bacillus subtilis (KCTC 3068)” value was 8 [8.7] μg/mL. The “MIC Escherichia coli (KCTC 1682)” value in assay [4] is 8 [8.7] μg/mL. The “MIC Pseudomonas aeruginosa (KCTC 1637)” value in assay [5] was >64 [>69.3] μg/mL. Besides, the “MIC Staphylococcus aureus (KCTC 1621)” value in assay [6] is 8 [8.7] μg/mL.
Regarding `N=C(N)NCCCN(CCCNC(=N)N)c1nc(N)nc(NCCNc2nc(NCCNc3nc(Cl)nc(N(CCCNC(=N)N)CCCNC(=N)N)n3)nc(N(Cc3ccccc3)Cc3ccccc3)n2)n1` [TZP9], the “GM (geometric mean of MIC values)” value in assay [2] was 3.5 [3.4] μg/mL. In assay [3], the “MIC Bacillus subtilis (KCTC 3068)” value is 2 [1.9] μg/mL. Further, the “MIC Escherichia coli (KCTC 1682)” value in assay [4] is 2 [1.9] μg/mL. Further, the “MIC Pseudomonas aeruginosa (KCTC 1637)” value in assay [5] was 8 [7.8] μg/mL. Besides, in assay [6], the “MIC Staphylococcus aureus (KCTC 1621)” value was 2 [1.9] μg/mL.
Regarding `N=C(N)NCCCN(CCCNC(=N)N)c1nc(Cl)nc(NCCNc2nc(NCCNc3nc(N)nc(NCCC(c4ccccc4)c4ccccc4)n3)nc(N(CCCNC(=N)N)CCCNC(=N)N)n2)n1` [TZP10], the “GM (geometric mean of MIC values)” value in assay [2] was 7.0 [6.7] μg/mL. For the same compound, in assay [3], the “MIC Bacillus subtilis (KCTC 3068)” value was 4 [3.8] μg/mL. For the same compound, in assay [4], the “MIC Escherichia coli (KCTC 1682)” value was 4 [3.8] μg/mL. For the same compound, the “MIC Pseudomonas aeruginosa (KCTC 1637)” value in assay [5] was 16 [15.4] μg/mL. The “MIC Staphylococcus aureus (KCTC 1621)” value in assay [6] is 4 [3.8] μg/mL.
On to `N=C(N)NCCCN(CCCNC(=N)N)c1nc(Cl)nc(NCCNc2nc(NCCNc3nc(NCCNc4nc(N)nc(NCCC(c5ccccc5)c5ccccc5)n4)nc(N(CCCNC(=N)N)CCCNC(=N)N)n3)nc(NCCC(c3ccccc3)c3ccccc3)n2)n1` [TZP11], for which the “GM (geometric mean of MIC values)” value in assay [2] was 10.0 µg/mL. Further, in assay [3], the “MIC Bacillus subtilis (KCTC 3068)” value is 8 [9.2] μg/mL. Also, in assay [4], the “MIC Escherichia coli (KCTC 1682)” value was 8 [9.2] μg/mL. The “MIC Pseudomonas aeruginosa (KCTC 1637)” value in assay [5] was 16 [18.3] μg/mL. The “MIC Staphylococcus aureus (KCTC 1621)” value in assay [6] is 8 [9.2] μg/mL.
Regarding `NCCCN(CCCN)c1nc(Cl)nc(NCCNc2nc(NCCNc3nc(NCCNc4nc(N)nc(NCCC(c5ccccc5)c5ccccc5)n4)nc(N(CCCN)CCCN)n3)nc(NCCC(c3ccccc3)c3ccccc3)n2)n1` [TZP12], the “GM (geometric mean of MIC values)” value in assay [2] was 8.0 [5.8] μg/mL. Besides, in assay [3], the “MIC Bacillus subtilis (KCTC 3068)” value was 8 [5.8] μg/mL. In assay [4], the “MIC Escherichia coli (KCTC 1682)” value was 4 [2.9] μg/mL. In addition, the “MIC Pseudomonas aeruginosa (KCTC 1637)” value in assay [5] is 16 [11.5] μg/mL. In addition, the “MIC Staphylococcus aureus (KCTC 1621)” value in assay [6] was 4 [2.9] μg/mL.
As for `NCCCN(CCCN)c1nc(N)nc(NCCNc2nc(NCCNc3nc(NCCNc4nc(NCCNc5nc(Cl)nc(N(CCCN)CCCN)n5)nc(N(CCCN)CCCN)n4)nc(N(CCCN)CCCN)n3)nc(N(CCCN)CCCN)n2)n1` [TZP13], the “GM (geometric mean of MIC values)” value in assay [2] was 7.0 [5.7] μg/mL. In addition, the “MIC Bacillus subtilis (KCTC 3068)” value in assay [3] was 4 [3.3] μg/mL. In addition, the “MIC Escherichia coli (KCTC 1682)” value in assay [4] was 8 [6.6] μg/mL. Also, the “MIC Pseudomonas aeruginosa (KCTC 1637)” value in assay [5] is 8 [6.6] μg/mL. In addition, the “MIC Staphylococcus aureus (KCTC 1621)” value in assay [6] was 8 [6.6] μg/mL.
